Assay results as given in paper PMC10779950, “Binding Free Energy Calculation Based on the Fragment Molecular Orbital Method and Its Application in Designing Novel SHP-2 Allosteric Inhibitors” (International Journal of Molecular Sciences, 2024).
Read-outs that look alike come from different tables or passages of the source.

Legend:
[1] = test system: Eg5; details: experimental binding free energy, ref Schrödinger FEP+ benchmark; cited from earlier work
[2] = molecular target: T1, SHP2^WT (1–593) (Homo sapiens, UniProt Q06124); test: SHP-2 prompt fluorescence phosphatase assay (DiFMUP), SHP2^WT; format: biochemical; design: ΔG experiment: unit not given here; details: for pIC50: from experimental IC50; for ΔG experiment: experimental binding free energy converted from IC50; for ΔGexp: converted from IC50 with ΔGexp ≈ kBTlog IC50
T1 construct: made in house; host or cells: E. coli BL21 Star (DE3), pET30 vector
T1 sequence (Q06124 1-593): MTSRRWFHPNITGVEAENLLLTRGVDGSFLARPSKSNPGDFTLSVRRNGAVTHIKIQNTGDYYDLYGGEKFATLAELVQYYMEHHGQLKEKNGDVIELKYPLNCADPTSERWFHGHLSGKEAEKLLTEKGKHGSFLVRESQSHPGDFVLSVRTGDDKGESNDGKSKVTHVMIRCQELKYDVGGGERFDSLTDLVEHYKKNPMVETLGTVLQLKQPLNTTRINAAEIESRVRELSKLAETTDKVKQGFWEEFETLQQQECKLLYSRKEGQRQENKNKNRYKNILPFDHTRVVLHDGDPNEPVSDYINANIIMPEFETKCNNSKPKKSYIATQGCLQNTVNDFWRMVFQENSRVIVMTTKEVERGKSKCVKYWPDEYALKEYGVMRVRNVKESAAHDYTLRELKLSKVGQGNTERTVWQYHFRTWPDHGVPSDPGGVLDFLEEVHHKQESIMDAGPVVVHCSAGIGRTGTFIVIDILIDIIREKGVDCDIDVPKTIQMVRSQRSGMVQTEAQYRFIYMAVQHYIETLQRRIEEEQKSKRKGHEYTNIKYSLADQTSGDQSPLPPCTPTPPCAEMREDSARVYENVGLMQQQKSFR
Experimental: Briefly, the constructs were transformed into BL21 Star^TM (DE3) cells and cultured at 37 °C for 3~4 h. Subsequently, the cells with high expression of SHP2 protein were harvested after being induced by IPTG and grown overnight at 18 °C. Cell pellets were resuspended in lysis buffer (25 mM imidazole, 50 mM Tris−HCl, 500 mM NaCl, 2.5 mM MgCl2, 1 mM tris(2-carboxyethyl)phosphine (TCEP), 1 μg/mL DNase1, and complete EDTA-free protease inhibitor) and lysed using Low Temperature Ultrahigh Pressure Continuous Flow Cell Disrupter (JNBIO), followed by ultracentrifugation. The supernatant was collected. Then, the SHP2 was purified from the collected supernatant by using HisTrap HP chelation column, TEV protease, and HiTrap Q FastFlow column.
Then, the mixture was then incubated at 25 °C for 60 min. To initiate the reaction, the surrogate substrate DiFMUP (Invitrogen, cat. no. D6567, Shuzhou, China, 200 μM) was added and incubated at 25 °C for another 30 min. […] Fluorescence signal was detected using a microplate reader (Bio-Tek, Shanghai, China, Synergy2) at Ex/Em = 340/450 nm. Using control-based normalization, normalized IC50 regression curves were fitted to inhibitor dose response curves.

[3] = test system: c-Met; design: method as in earlier work; details: Schrödinger FEP+ benchmark; cited from earlier work
[4] = test system: SYK; details: experimental binding free energy, ref Schrödinger FEP+ benchmark; cited from earlier work
[5] = test system: c-Met; design: method as in earlier work; details: FEP+ predicted ΔG from the benchmark; cited from earlier work
[6] = test system: SYK; design: method as in Schrödinger FEP+ benchmark; details: FEP+ predicted binding free energy, ref Schrödinger FEP+ benchmark; cited from earlier work
[7] = test system: THR-β; test: Experimental THR-β activity of agonists taken from Hu et al.; format: biochemical; details: Table S4, converted from the experimental value
Source text: In the initial phase of our investigation, we conducted a retrospective evaluation of FMOScore’s performance concerning thyroid hormone receptor β (THR-β) agonists, using a set of 18 compounds taken from the work of Hu et al. [65]

[8] = SHP-2_case sheet, designed SHP-2 inhibitors, read-out: IC50uM
[9] = SHP-2_case sheet, same IC50 restated in another unit, read-out: IC50nM
[10] = SHP2^WT, DiFMUP substrate, averages of three independent experiments, read-out: SHP-2 IC50

## FC(F)(F)c1ccc2c(c1)[C@H]1O[C@@H](Cn3cncn3)CC[C@H]1[C@H](c1ccccc1)N2 [CHEMBL1093088]
[1]
  Exp. ΔG: -11.22 kcal/mol

## Nc1cc(NC2CCNCC2)cnc1-c1cccc(Cl)c1Cl [A-S4]
[2]; [8]
  IC50: 23.5 µM
[2]; SHP-2_case sheet
  pIC50: 4.629
[2]; [9]
  IC50: 23.5 µM
[2]
  ΔG experiment: -6.312

## CNCCS(=O)(=O)NC[C@H]1CC[C@@H]2[C@H](O1)c1cc(C(F)(F)F)ccc1N[C@H]2c1ccccc1 [CHEMBL1084677]
[1]
  Exp. ΔG: -11.46 kcal/mol

## CN(C[C@H]1CC[C@@H]2[C@H](O1)c1cc(C(F)(F)F)ccc1N[C@H]2c1ccccc1)S(=O)(=O)CCCN [CHEMBL1084678]
[1]
  Exp. ΔG: -11.13 kcal/mol

## CN(C)CCNC(=O)NC[C@H]1CC[C@@H]2[C@H](O1)c1cc(C(F)(F)F)ccc1N[C@H]2c1ccccc1 [CHEMBL1077204]
[1]
  Exp. ΔG: -11.05 kcal/mol

## CC1(N)CCN(c2cnc(-c3cccc(Cl)c3Cl)c(N)c2)CC1 [A-S1]
[2]; [8]
  IC50: 1.49 µM
[2]; SHP-2_case sheet
  pIC50: 5.826
[2]; [9]
  IC50: 1.49 µM
[2]
  ΔG experiment: -7.943

## CNC[C@H]1CC[C@@H]2[C@H](O1)c1cc(Br)cc(F)c1N[C@H]2c1ccccc1 [CHEMBL1082248]
[1]
  Exp. ΔG: -11.63 kcal/mol

## Nc1cc(NC2CCNC2)cnc1-c1cccc(Cl)c1Cl (stereo not drawn) [A-S3]
[2]; [8]
  IC50: 5.17 µM
[2]; SHP-2_case sheet
  pIC50: 5.286
[2]; [9]
  IC50: 5.17 µM
[2]
  ΔG experiment: -7.208

## Clc1ccc2c(c1)[C@H]1OCCC[C@H]1[C@H](c1ccccc1)N2 [CHEMBL1089393]
[1]
  Exp. ΔG: -8.38 kcal/mol

## CNC[C@H]1CC[C@@H]2[C@H](O1)c1cc(C(F)(F)F)ccc1N[C@H]2c1ccc(O)cc1 [CHEMBL1083517]
[1]
  Exp. ΔG: -11.46 kcal/mol

## CC1(N)CCN(c2cnc(-c3cccc(F)c3Cl)c(N)c2)CC1 [A-S5]
[2]; [8]
  IC50: 15.1 µM
[2]; SHP-2_case sheet
  pIC50: 4.821
[2]; [9]
  IC50: 15.1 µM
[2]
  ΔG experiment: -6.573

## Nc1cc(N2CCC3(CCCC3N)CC2)cnc1Sc1cccc(Cl)c1Cl (stereo not drawn) [Compound 8, 8-(5-amino-6-((2,3-dichlorophenyl)thio)pyridin-3-yl)-8-azaspiro[4.5]decan-1-amine]
[3]
  Exp. ΔG: -10.06 kcal/mol
[4]
  Exp. ΔG: -9.78 kcal/mol
[5]
  FEP: -9.12 kcal/mol
[6]
  FEP: -10.6 kcal/mol
[7]
  ΔGexp: -8.072 kcal/mol
[2]; Figure S4, DIFMUP substrate, mean ± SD (n = 3)
  inhibitory activity against SHP-2 (in words): potent inhibitory activity
[2]; [10]
  IC50: 2.29 ± 0.66 µM
[2]
  ΔGexp: -7.690 kcal/mol

## Nc1cc(NC2CCNC2)cnc1-c1cccc(Cl)c1Cl (stereo not drawn) [Compound 3, 2-(2,3-dichlorophenyl)-N5-(pyrrolidin-3-yl) pyridine-3,5-diamine]
[3]
  Exp. ΔG: -7.46 kcal/mol
[4]
  Exp. ΔG: -8.64 kcal/mol
[5]
  FEP: -5.97 kcal/mol
[6]
  FEP: -6.76 kcal/mol
[7]
  ΔGexp: -8.435 kcal/mol
[2]; [10]
  IC50: 5.17 ± 1.08 µM
[2]
  ΔGexp: -7.207 kcal/mol

## CC(C)(C)c1ccc2c(c1)[C@H]1OCCC[C@H]1[C@H](c1cccs1)N2 [CHEMBL1078998]
[1]
  Exp. ΔG: -10.37 kcal/mol

## CC(C)(C)c1ccc2c(c1)[C@H]1OCCC[C@H]1[C@H](c1ccccc1)N2 [CHEMBL1089056]
[1]
  Exp. ΔG: -9.44 kcal/mol

## NCCN(C[C@H]1CC[C@@H]2[C@H](O1)c1cc(C(F)(F)F)ccc1N[C@H]2c1ccccc1)c1ccccc1 [CHEMBL1093087]
[1]
  Exp. ΔG: -10.53 kcal/mol

## CNC[C@H]1CC[C@@H]2[C@H](O1)c1cc(C(F)(F)F)ccc1N[C@H]2c1ccc(F)cc1 [CHEMBL1086409]
[1]
  Exp. ΔG: -9.87 kcal/mol

## CC(C)(C)c1ccc2c(c1)[C@H]1OCCC[C@H]1[C@H](c1ccc(O)c(F)c1)N2 [CHEMBL1078774]
[1]
  Exp. ΔG: -10.6 kcal/mol

## NC[C@H]1CC[C@@H]2[C@H](O1)c1cc(C(F)(F)F)ccc1N[C@H]2c1ccccc1 [CHEMBL1085666]
[1]
  Exp. ΔG: -10.5 kcal/mol

## Nc1cc(NCC2CCCNC2)cnc1-c1cccc(Cl)c1Cl (stereo not drawn) [Compound 2, 2-(2,3-dichlorophenyl)-N5-(piperidin-3-ylmethyl) pyridine-3,5-diamine]
[3]
  Exp. ΔG: -11.25 kcal/mol
[4]
  Exp. ΔG: -11.01 kcal/mol
[5]
  FEP: -11.93 kcal/mol
[6]
  FEP: -10.49 kcal/mol
[7]
  ΔGexp: -6.110 kcal/mol
[2]; [10]
  IC50: 15.6 ± 1.49 µM
[2]
  ΔGexp: -6.553 kcal/mol
[2]; ratio of IC50
  fold reduced inhibition on morphing the piperazine ring (relative to compound 1): 10 fold

## CC1(N)CCN(c2cnc(Sc3cccc(Cl)c3Cl)c(N)c2)CC1 [A-S7]
[2]; [8]
  IC50: 11.2 µM
[2]; SHP-2_case sheet
  pIC50: 4.949
[2]; [9]
  IC50: 11.2 µM
[2]
  ΔG experiment: -6.748

## CC(C)c1ccc2c(c1)[C@H]1O[C@@H](CNS(=O)(=O)CCCN(C)C)CC[C@H]1[C@H](c1ccccc1)N2 [CHEMBL1084143]
[1]
  Exp. ΔG: -11.87 kcal/mol

## CNC[C@H]1CC[C@@H]2[C@H](O1)c1cc(C3CC3)ccc1N[C@H]2c1ccccc1 [CHEMBL1083836]
[1]
  Exp. ΔG: -10.86 kcal/mol

## CC1(N)CCN(c2cnc(-c3ccnc(Cl)c3Cl)c(N)c2)CC1 [A-S6]
[2]; [8]
  IC50: 10.7 µM
[2]; SHP-2_case sheet
  pIC50: 4.973
[2]; [9]
  IC50: 10.7 µM
[2]
  ΔG experiment: -6.78

## CC1(N)CCN(c2cnc(-c3cccc(F)c3Cl)c(N)c2)CC1 [Compound 5, 5-(4-amino-4-methylpiperidin-1-yl)-2-(2-chloro-3-fluorophenyl) pyridin-3-amine]
[3]
  Exp. ΔG: -9.14 kcal/mol
[5]
  FEP: -8.31 kcal/mol
[7]
  ΔGexp: -5.453 kcal/mol
[2]; [10]
  IC50: 15.1 ± 0.8 µM
[2]
  ΔGexp: -6.573 kcal/mol

## CCN(CCO)C[C@H]1CC[C@@H]2[C@H](O1)c1cc(C(C)(C)C)ccc1N[C@H]2c1ccccc1 [CHEMBL1084935]
[1]
  Exp. ΔG: -10.53 kcal/mol

## Nc1cc(N2CCC3(CCCC3N)CC2)cnc1Sc1cccc(Cl)c1Cl (stereo not drawn) [A-S8]
[2]; [8]
  IC50: 2.29 µM
[2]; SHP-2_case sheet
  pIC50: 5.64
[2]; [9]
  IC50: 2.29 µM
[2]
  ΔG experiment: -7.69

## CC(C)(C)c1ccc2c(c1)[C@H]1OCCC[C@H]1[C@H](c1ccc(O)cc1)N2 [CHEMBL1078691]
[1]
  Exp. ΔG: -10.19 kcal/mol

## Cc1ccc2c(c1)[C@H]1OCCC[C@H]1[C@H](c1ccccc1)N2 [CHEMBL1088740]
[1]
  Exp. ΔG: -8.7 kcal/mol

## Nc1cc(NCC2CCCNC2)cnc1-c1cccc(Cl)c1Cl (stereo not drawn) [A-S2]
[2]; [8]
  IC50: 15.6 µM
[2]; SHP-2_case sheet
  pIC50: 4.8066
[2]; [9]
  IC50: 15.6 µM
[2]
  ΔG experiment: -6.554

## CN(C)CCOC(=O)NC[C@H]1CC[C@@H]2[C@H](O1)c1cc(C(F)(F)F)ccc1N[C@H]2c1ccccc1 [CHEMBL1084676]
[1]
  Exp. ΔG: -10.71 kcal/mol

## CC(=O)NCCNC[C@H]1CC[C@@H]2[C@H](O1)c1cc(Br)cc(F)c1N[C@H]2c1ccccc1 [CHEMBL1082249]
[1]
  Exp. ΔG: -11.22 kcal/mol

## CC(C)(C)c1ccc2c(c1)[C@H]1OCCC[C@H]1[C@H](c1ccsc1)N2 [CHEMBL1084115]
[1]
  Exp. ΔG: -9.44 kcal/mol

## CN(C)CCCC(=O)NC[C@H]1CC[C@@H]2[C@H](O1)c1cc(Br)cc(F)c1N[C@H]2c1ccccc1 [CHEMBL1085692]
[1]
  Exp. ΔG: -11.32 kcal/mol

## Cc1ccc(C(=O)N(CCN)C[C@H]2CC[C@@H]3[C@H](O2)c2cc(C(F)(F)F)ccc2N[C@H]3c2ccccc2)cc1 [CHEMBL1084431]
[1]
  Exp. ΔG: -9.8 kcal/mol

## CN(C)CCS(=O)(=O)NC[C@H]1CC[C@@H]2[C@H](O1)c1cc(Cl)cc(F)c1N[C@H]2c1ccccc1 [CHEMBL1096003]
[1]
  Exp. ΔG: -11.87 kcal/mol

## OCCNC[C@H]1CC[C@@H]2[C@H](O1)c1cc(Cl)cc(F)c1N[C@H]2c1ccccc1 [CHEMBL1096002]
[1]
  Exp. ΔG: -11.13 kcal/mol

## CNC[C@H]1CC[C@@H]2[C@H](O1)c1cc(C(C)(C)C)ccc1N[C@H]2c1ccccc1 [CHEMBL1086410]
[1]
  Exp. ΔG: -11.46 kcal/mol

## CNC[C@H]1CC[C@@H]2[C@H](O1)c1cc(C(C)(C)C)ccc1N[C@H]2c1cccs1 [CHEMBL1077227]
[1]
  Exp. ΔG: -11.32 kcal/mol
